Measured values published in article PMC11423305, “Structure-Based Design of CBP/EP300 Degraders: When Cooperativity Overcomes Affinity” (JACS Au, 2024).
“Also recorded” adds a separate entry of the source.

How the values were obtained:
[1] = tested on: LNCaP cells; assay: Cell viability (resazurin), LNCaP; assay type: cell-based; conditions: 3 day treatment
Protocol: normalized to DMSO treated lanes on the same membrane. (Several compounds were
measured at the same time, so DMSO treated lanes are replicated here between
Figure S5. Anti-proliferation in additional cell lines. LNCaP (A and C) and SH-SY5Y (B)
cell viability following 3 day compound treatment, and LNCaP following 6 day treatment
(D), determined using resazurin.
After 3 days of treatment, dCE-2 only has a mild effect on the proliferation of LNCaP and
SH-SY5Y cells (Figure S5A and B).
the new CBP/EP300 PROTACs CBPD -268 and CBPD-4092,3 which have enhanced anti-
proliferative activity in LNcaP cells relative to their parent inhibitor s. However, although
these PROTACs have effects at very low concentrations, their effect plateaus and a
substantial proportion of cells remain viable at high compound concentrations. Similarly,
degradation of CBP and EP300, the maximal effect of this PROTAC is also limited under
the conditions we used (Figure S5C). Through this work it was clear to us that these […]
proliferation. […]
concentrations of CRBN, as determined through competition with acetylated peptide […]
Fluorescence (excitation = 560 nm, emission = 590 nm) was measured using a
spectraMax M5 microplate reader (Molecular Devices) and cell viability was calculated […]
values were calculated as the concentration required to inhibit cell viability to 50 % […]

[2] = molecular target: CBP-BRD (Homo sapiens, UniProt Q92793); assay: BROMOscan ligand binding site-directed competition assay, CBP; set-up: T7 phage display fusion with DNA tag for qPCR; purchased Eurofins Discovery (BROMOscan service); host or cells: E. coli infected with T7 phage
Sequence of CBP-BRD (Q92793 1085-1192 limits assumed): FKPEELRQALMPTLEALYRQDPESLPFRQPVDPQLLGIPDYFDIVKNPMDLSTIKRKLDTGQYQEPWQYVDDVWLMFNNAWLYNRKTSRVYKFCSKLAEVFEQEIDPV
Protocol: 2. Methods and General Procedures […]
KD values were determined using BROMOscan™ technology, carried out by Eurofins […]
Discovery according to their standard protocol. Briefly E. coli were infected with T7 phage […]
strains displaying bromodomains and bromodomain protein was subsequently purified […]
through lysis, centrifugation and filtration. Affinity resins were generated by incubation of […]
streptavidin-coated magnetic beads with biotinylated small molecules or acetylated […]
peptide ligands. Binding reactions were assembled by combining the bromodomains and […]
liganded affinity beads in binding buffer (17 % SeaBlock, 0.33x PBS, 0.04 % Tween 20, […]
0.02 % BSA, 0.004 % sodium azide and 7.4 mM DTT) with compounds (11-point, 3-fold […]
dilution series) added to give a final DMSO concentration of 0.09 %. Assay plates were […]
incubated for 1 h, prior to washing and elution of beads. The bromodomain concentration […]
in the eluates was measured by qPCR of the DNA tag on the bromodomain.
KD values were calculated with a standard dose-response curve fitted using the Hill […]
Response = Background + Signal − Background […]
The Hill Slope was set to -1 and curves fitted using a non-linear least square fit with the Levenberg-Marquardt algorithm.
Ligand efficiency (LE) was calculated as follows: LE = 1.4(pIC50)/N

Kd ([2]; BROMOscan): 1300 nM
loss of potency compared to parent compound 3, CBP ([2]; BROMOscan KD ratio): > 40 fold
SMILES: Cc1cc2c(NC(=O)c3cc(NC(=O)CCCCCCCCCCNc4cccc5c4C(=O)N(C4CCC(=O)NC4=O)C5=O)cc(-c4ccn(C)n4)c3)cccc2nn1 (stereo not drawn) [dCE-2]
effect on proliferation of LNCaP cells [1]: mild effect; also recorded: limited effect
